In publication PMC10726481, “New Teixobactin Analogues with a Total Lactam Ring” (ACS Medicinal Chemistry Letters, 2023):
≈ marks a conversion by molar mass, not a printed value. Bridge positions count the residues as written; N and C are the ends. Square brackets hold non-standard residues; d marks the D form. Peptide text beside a SMILES is read from it. d(aIle) = CC[C@H](C)[C@@H](N)C(=O)O; dNMeF = CN[C@H](Cc1ccccc1)C(=O)O; Nle = CCCC[C@H](N)C(=O)O; dDap = NC[C@@H](N)C(=O)O

What was measured:
S. aureus ATCC 25923 = assay type: cell-based; details: ATCC 25923, 18 h
Experimental: (§1) . The minimum inhibitory concentrations (MICs) of synthesized compounds were assessed according to the broth microdilution method using 96-well plates, in reference to the protocol of the Clinical and Laboratory Standards Institute (CLSI).[32],[33] In assays, reference strains of the bacteria S. aureus ATCC 25923, S. epidermidis ATCC 14990, and E. coli ATCC 25922 and the fungus C. glabrata ATCC 15126 were used, all from The Polish Collection of Microorganism, Polish Academy of Sciences, Wrocław, Poland. Bacteria at initial inoculums of 0.5 × 10^5 CFU/mL in Mueller–Hinton Broth (MHB), and fungus at initial inoculums of 2 × 10^3 CFU/mL in RPMI-1640, were exposed to the serial dilution of compounds. Tested concentrations were in the range 1–512 μg/mL. 96-well plates with microorganisms and tested substances were incubated at 37 °C for 18 h for bacteria and for 24 h for C. glabrata. The MIC values were taken as the lowest concentrations at which visible growth of microorganisms was inhibited. The minimum inhibitory concentrations (MICs) for MRSA ATCC 33591 were tested at the University of Liverpool. Bacterial cultures were grown overnight in Mueller–Hinton Agar (MHA) plates and adjusted to a final concentration of 10^5–10^6 CFU/mL. 100 μL of inoculum in Meuller–Hinton broth (MHB) was mixed with an equal volume of peptides (dissolved in MHB) at 2× their concentration in a 96-well plate. […] Positive and negative controls contained 200 μL of inoculum without any peptide dissolved in broth, respectively. The 96-well plates were then incubated at 37 °C for 24 h. All the experiments were performed in two independent duplicates, and the MIC was determined as the lowest concentration in which no visible growth was observed.

[1] = system: S. epidermidis ATCC 14990; assay type: cell-based; details: ATCC 14990, 18 h
Experimental: as §1

C. glabrata ATCC 15126 = test: microbe, parasite or virus in culture; assay type: cell-based; details: for MIC C. glabrata ATCC 15126: ATCC 15126, 24 h
Experimental: (§2) . The minimum inhibitory concentrations (MICs) of synthesized compounds were assessed according to the broth microdilution method using 96-well plates, in reference to the protocol of the Clinical and Laboratory Standards Institute (CLSI).[32],[33] In assays, reference strains of the bacteria S. aureus ATCC 25923, S. epidermidis ATCC 14990, and E. coli ATCC 25922 and the fungus C. glabrata ATCC 15126 were used, all from The Polish Collection of Microorganism, Polish Academy of Sciences, Wrocław, Poland. Bacteria at initial inoculums of 0.5 × 10^5 CFU/mL in Mueller–Hinton Broth (MHB), and fungus at initial inoculums of 2 × 10^3 CFU/mL in RPMI-1640, were exposed to the serial dilution of compounds. Tested concentrations were in the range 1–512 μg/mL. 96-well plates with microorganisms and tested substances were incubated at 37 °C for 18 h for bacteria and for 24 h for C. glabrata. The MIC values were taken as the lowest concentrations at which visible growth of microorganisms was inhibited. The minimum inhibitory concentrations (MICs) for MRSA ATCC 33591 were tested at the University of Liverpool. Bacterial cultures were grown overnight in Mueller–Hinton Agar (MHA) plates and adjusted to a final concentration of 10^5–10^6 CFU/mL. 100 μL of inoculum in Meuller–Hinton broth (MHB) was mixed with an equal volume of peptides (dissolved in MHB) at 2× their concentration in a 96-well plate. […] The final peptide concentrations ranged from 0.0625–32 μg/mL (the lower range 0.031–16 μg/mL was used). Positive and negative controls contained 200 μL of inoculum without any peptide dissolved in broth, respectively. The 96-well plates were then incubated at 37 °C for 24 h. All the experiments were performed in two independent duplicates, and the MIC was determined as the lowest concentration in which no visible growth was observed.

E. coli ATCC 25922 = test: microbe, parasite or virus in culture; assay type: cell-based; details: for MIC E. coli ATCC 25922: ATCC 25922, 18 h
Experimental: as §2

MRSA ATCC 33591 = assay type: cell-based, methicillin-resistant S. aureus; details: ATCC 33591, 24 h
Experimental: . The minimum inhibitory concentrations (MICs) of synthesized compounds were assessed according to the broth microdilution method using 96-well plates, in reference to the protocol of the Clinical and Laboratory Standards Institute (CLSI).[32],[33] In assays, reference strains of the bacteria S. aureus ATCC 25923, S. epidermidis ATCC 14990, and E. coli ATCC 25922 and the fungus C. glabrata ATCC 15126 were used, all from The Polish Collection of Microorganism, Polish Academy of Sciences, Wrocław, Poland. Bacteria at initial inoculums of 0.5 × 10^5 CFU/mL in Mueller–Hinton Broth (MHB), and fungus at initial inoculums of 2 × 10^3 CFU/mL in RPMI-1640, were exposed to the serial dilution of compounds. Tested concentrations were in the range 1–512 μg/mL. 96-well plates with microorganisms and tested substances were incubated at 37 °C for 18 h for bacteria and for 24 h for C. glabrata. The MIC values were taken as the lowest concentrations at which visible growth of microorganisms was inhibited. The minimum inhibitory concentrations (MICs) for MRSA ATCC 33591 were tested at the University of Liverpool. Bacterial cultures were grown overnight in Mueller–Hinton Agar (MHA) plates and adjusted to a final concentration of 10^5–10^6 CFU/mL. […] All the experiments were performed in two independent duplicates, and the MIC was determined as the lowest concentration in which no visible growth was observed.

MRSA = details: compared with the 4 μg/mL of the analogues; strain not given, context MRSA; cited from earlier work
Experimental: To determine the antimicrobial activity of these analogues, the MIC test using the microdilution method was chosen. Analogues were tested on three different types of bacteria: Gram-positive S. aureus and S. epidermidis, Gram-negative E. coli and fungus C. glabrata (Table 1) including the MRSA ATCC 33591.

Row | Compound | MIC S. aureus ATCC 25923 (S. aureus ATCC 25923) | MIC S. epidermidis ATCC 14990 [1] | MIC C. glabrata ATCC 15126 (C. glabrata ATCC 15126) | MIC E. coli ATCC 25922 (E. coli ATCC 25922) | MIC (C. glabrata ATCC 15126; Nakaseomyces glabratus, ATCC15126, CLSI broth microdilution, 96-well plates, RPMI-1640, inoculum 2 × 10^3 CFU/mL, 37 °C for 24 h, tested 1–512 μg/mL, visible growth) | MIC MRSA ATCC 33591 (MRSA ATCC 33591) | MIC (E. coli ATCC 25922; Escherichia coli, ATCC25922, 18 h, read-out: MIC E. coli ATCC 25922) | potency (MIC) of natural teixobactin (MRSA)
1 | CC[C@H](C)[C@@H]1NC(=O)[C@H](CCCNC(=N)N)NC(=O)[C@H](C)NC(=O)[C@H](NC(=O)[C@H](CO)NC(=O)[C@@H](NC(=O)[C@H](NC(=O)[C@@H](CCCNC(=N)N)NC(=O)[C@H](CO)NC(=O)[C@@H](NC(=O)[C@@H](Cc2ccccc2)NC)[C@@H](C)CC)[C@@H](C)CC)[C@@H](C)CC)CNC1=O [TXGS-5] (H-[dNMeF]IS[dR][d(aIle)]IS[dDap]ARI; lactam 8-C) | 256 µg/mL (≈ 204 µM) | 256 µg/mL (≈ 204 µM) | 512 µg/mL (≈ 407 µM) | 256 µg/mL (≈ 204 µM) | – | – | – | –
2 | CC(=O)N1CCN(c2ccc(OCC3COC(Cn4ccnc4)(c4ccc(Cl)cc4Cl)O3)cc2)CC1 (stereo not drawn) [Ketoconazole, ketoconazole, reference compound] | – | – | – | – | 0.62 µg/mL (≈ 1.17 µM) | – | – | –
3 | CCCC[C@@H]1NC(=O)[C@H](CCCNC(=N)N)NC(=O)[C@H](C)NC(=O)[C@H](NC(=O)[C@H](CO)NC(=O)[C@@H](NC(=O)[C@H](NC(=O)[C@@H](CCC(N)=O)NC(=O)[C@H](CO)NC(=O)[C@@H](NC(=O)[C@@H](Cc2ccccc2)NC)[C@@H](C)CC)[C@@H](C)CC)[C@@H](C)CC)CNC1=O [TXGS-3] | 4 µg/mL (≈ 3.25 µM) | 64 µg/mL (≈ 52.1 µM) | >512 µg/mL | >512 µg/mL | – | 4 µg/mL (≈ 3.25 µM) | – | –
4 | CN[C@H](CC(C)C)C(=O)N[C@H]1C(=O)N[C@@H](CC(N)=O)C(=O)N[C@H]2C(=O)N[C@H]3C(=O)N[C@H](C(=O)N[C@H](C(=O)O)c4cc(O)cc(O)c4-c4cc3ccc4O)[C@H](O)c3ccc(c(Cl)c3)Oc3cc2cc(c3O[C@@H]2O[C@H](CO)[C@@H](O)[C@H](O)[C@H]2O[C@H]2C[C@](C)(N)[C@H](O)[C@H](C)O2)Oc2ccc(cc2Cl)[C@H]1O [Vancomicin, vancomycin, reference compound] | – | – | – | – | – | – | > 64 µg/mL | –
5 | CCCC[C@@H]1NC(=O)[C@H](CCCNC(=N)N)NC(=O)[C@H](C)NC(=O)[C@H](NC(=O)[C@H](CO)NC(=O)[C@@H](NC(=O)[C@H](NC(=O)[C@@H](CCCNC(=N)N)NC(=O)[C@H](CO)NC(=O)[C@@H](NC(=O)[C@H](N)Cc2ccccc2)[C@@H](C)CC)[C@@H](C)CC)[C@@H](C)CC)CNC1=O [TXGS-8] (H-[dF]IS[dR][d(aIle)]IS[dDap]AR[Nle]; lactam 8-C) | 8 µg/mL (≈ 6.43 µM) | 8 µg/mL (≈ 6.43 µM) | 128 µg/mL (≈ 103 µM) | 64 µg/mL (≈ 51.5 µM) | – | – | – | –
6 | teixobactin | – | – | – | – | – | – | – | 0.25 µg/mL
7 | CCCC[C@@H]1NC(=O)[C@H](CCCNC(=N)N)NC(=O)[C@H](C)NC(=O)[C@H](NC(=O)[C@H](CO)NC(=O)[C@@H](NC(=O)[C@H](NC(=O)[C@@H](CCCNC(=N)N)NC(=O)[C@H](CO)NC(=O)[C@@H](NC(=O)[C@@H](Cc2ccccc2)NC)[C@@H](C)CC)[C@@H](C)CC)[C@@H](C)CC)CNC1=O [TXGS-7] (H-[dNMeF]IS[dR][d(aIle)]IS[dDap]AR[Nle]; lactam 8-C) | 4 µg/mL (≈ 3.18 µM) | 8 µg/mL (≈ 6.36 µM) | 64 µg/mL (≈ 50.9 µM) | 32 µg/mL (≈ 25.4 µM) | – | 4 µg/mL (≈ 3.18 µM) | – | –
8 | CC[C@H](C)[C@H](NC(=O)[C@H](N)Cc1ccccc1)C(=O)N[C@@H](CO)C(=O)N[C@H](CCC(N)=O)C(=O)N[C@@H](C(=O)N[C@H](C(=O)N[C@@H](CO)C(=O)N[C@@H]1CNC(=O)[C@H]([C@@H](C)CC)NC(=O)[C@H](CCCNC(=N)N)NC(=O)[C@H](C)NC1=O)[C@@H](C)CC)[C@@H](C)CC [TXGS-2] | 32 µg/mL (≈ 26.3 µM) | 128 µg/mL (≈ 105 µM) | >512 µg/mL | >512 µg/mL | – | – | – | –
9 | CC[C@H](C)[C@@H]1NC(=O)[C@H](CCCNC(=N)N)NC(=O)[C@H](C)NC(=O)[C@H](NC(=O)[C@H](CO)NC(=O)[C@@H](NC(=O)[C@H](NC(=O)[C@@H](CCC(N)=O)NC(=O)[C@H](CO)NC(=O)[C@@H](NC(=O)[C@@H](Cc2ccccc2)NC)[C@@H](C)CC)[C@@H](C)CC)[C@@H](C)CC)CNC1=O [TXGS-1, D-Dap8,Arg10-teixobactin, reference compound] | 32 µg/mL (≈ 26 µM) | 256 µg/mL (≈ 208 µM) | >512 µg/mL | >512 µg/mL | – | – | – | –
10 | CC[C@H](C)[C@H](NC(=O)[C@H](N)Cc1ccccc1)C(=O)N[C@@H](CO)C(=O)N[C@H](CCCNC(=N)N)C(=O)N[C@@H](C(=O)N[C@H](C(=O)N[C@@H](CO)C(=O)N[C@@H]1CNC(=O)[C@H]([C@@H](C)CC)NC(=O)[C@H](CCCNC(=N)N)NC(=O)[C@H](C)NC1=O)[C@@H](C)CC)[C@@H](C)CC [TXGS-6] | 64 µg/mL (≈ 51.5 µM) | 64 µg/mL (≈ 51.5 µM) | >512 µg/mL | >512 µg/mL | – | – | – | –
